In paper PMC6302903, “Protein and Chemical Determinants of BL-1249 Action and Selectivity for K2P Channels” (ACS Chemical Neuroscience, 2018):

Assays:
K2P9.1(TASK-3) = target: T1, K2P9.1(TASK-3) (Mus musculus, UniProt Q3LS21); experiment: TEVC of K2P9.1(TASK-3) in Xenopus oocytes; assay type: cell-based; details: concentrations up to the solubility limit (∼80 μM)
T1 construct: expressed in transfected cells; host or cells: Xenopus laevis oocytes (mRNA injection, pGEMHE/pMO)
Method: (§1) BL-1249 activates K2P2.1(TREK-1)[18],[40] and K2P10.1(TREK-2),[7] but its effects on other K2P channels have not been characterized. […] In order to test if the original 10 μM assay had missed BL-1249 effects in other K2P channels, we tested concentrations of BL-1249 up to the solubility limit (∼80 μM) against the other K2P subfamily representatives. […]
(§2) Xenopus laevis oocytes were harvested in accordance with UCSF IACUC protocol AN129690 and digested in calcium-free ND-96 (96 mM NaCl, 2 mM KCl, 3.8 mM MgCl2) immediately following harvest, as previously described.[6],[10] […] Defolliculated stage V–VI oocytes were injected with 0.2–6.0 ng of mRNA in 50 nL, and currents were recorded 24–48 h after injection. mRNA was synthesized from plasmid DNA using mMessage mMachine Kit (T7 promoter, Ambion, Life Technologies) and purified using RNEasy Kit (Qiagen). […] Once stabilized basal currents were recorded, compounds were perfused at various concentrations in standard ND96 and currents were allowed to increase to stabilization before recording final current. Fold activation upon compound application is expressed as I/I0 (0 mV), derived from the current at 0 mV in the presence of compound divided by the basal current at 0 mV in standard ND96 without compound. Data were analyzed and plotted using Graphpad Prism Version 5 (GraphPad Software, San Diego California USA, www.graphpad.com). […]

K2P18.1(TRESK) = target: T2, K2P18.1(TRESK) (Mus musculus, UniProt Q6VV64); experiment: TEVC of K2P18.1(TRESK) in Xenopus oocytes; assay type: cell-based; details: concentrations up to the solubility limit (∼80 μM)
T2 construct: expressed in transfected cells; host or cells: Xenopus laevis oocytes (mRNA injection, pGEMHE/pMO)
Method: as §1, §2

T1 sequence (Q3LS21 whole entry): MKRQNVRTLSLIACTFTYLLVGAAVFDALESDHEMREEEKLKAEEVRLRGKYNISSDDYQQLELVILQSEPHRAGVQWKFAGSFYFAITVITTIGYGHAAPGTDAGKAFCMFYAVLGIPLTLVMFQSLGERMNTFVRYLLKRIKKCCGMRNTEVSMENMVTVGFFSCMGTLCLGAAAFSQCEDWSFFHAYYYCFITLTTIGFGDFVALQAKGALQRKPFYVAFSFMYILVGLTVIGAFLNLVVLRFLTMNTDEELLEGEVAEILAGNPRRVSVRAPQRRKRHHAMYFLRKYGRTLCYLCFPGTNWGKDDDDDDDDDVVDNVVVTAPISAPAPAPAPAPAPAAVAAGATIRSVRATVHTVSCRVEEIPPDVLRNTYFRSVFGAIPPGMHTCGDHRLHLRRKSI
T2 sequence (Q6VV64 whole entry): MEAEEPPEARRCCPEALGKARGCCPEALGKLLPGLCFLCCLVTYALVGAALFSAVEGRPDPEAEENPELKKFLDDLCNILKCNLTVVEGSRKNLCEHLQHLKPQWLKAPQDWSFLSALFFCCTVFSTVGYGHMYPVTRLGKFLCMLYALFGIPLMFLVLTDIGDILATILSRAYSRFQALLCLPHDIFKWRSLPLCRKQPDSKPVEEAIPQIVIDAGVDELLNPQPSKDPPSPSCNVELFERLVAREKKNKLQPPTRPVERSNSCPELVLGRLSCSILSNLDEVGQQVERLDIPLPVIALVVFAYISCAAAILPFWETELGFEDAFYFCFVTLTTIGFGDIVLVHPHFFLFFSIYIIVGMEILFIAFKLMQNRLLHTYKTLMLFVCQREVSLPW

- activation of K2P9.1(TASK-3) (K2P9.1(TASK-3)): failed to find evidence for activation
- activation of K2P18.1(TRESK) (K2P18.1(TRESK)): failed to find evidence for activation
SMILES: c1ccc(-c2nnn[nH]2)c(Nc2cccc3c2CCCC3)c1 [BL-1249, (5,6,7,8-tetrahydro-naphthalen-1-yl)-[2-(1H-tetrazol-5-yl)-phenyl]-amine]
